# Reference: patent US20020183684A1, “Electroporation-enhanced inhibition of vascular neointimal hyperplasia” (GENETRONICS, priority 1996, published 2002)
# Entries after “also recorded” stand apart in the source; their conditions may differ.
# What was measured:
# [1] = test system: balloon injured rat carotid arteries (neointimal hyperplasia); assay: Balloon injury of rat carotid arteries, local heparin delivery with or without electroporation, arterial morphometry at day 28; assay type: in vivo; conditions: for Active lumen area / Intimal wall thickness / Mean intimal area / Medial area / Intima/media thickness ratio: day 28, mean ± SEM; for Neointima formation (in words): 28 days
# Description: Mature adult male Sprague-Dawley rats (Harlan, San Diego, Calif.) with an average body weight of 423.8±8.6 (SEM) gm were housed in individual cages in light-dark cycled, temperature-controlled rooms. Standard laboratory chow and water were available ad lib. After a minimum of 7 days acclimatization, the rats were anesthetized with an intramuscular injection of ketamine, 90 mg/kg (Phoenix, St. Joseph, Mo.) and xylazine, 15 mg/kg (Fermenta, Kansas City, Mo.). After anesthesia, they were strapped supine on a surgical table with body temperature maintained at 37° C. using a thermostatic blanket. The animals breathed spontaneously and Lead II electrocardiogram was monitored throughout the experiment. […] All procedures conformed to the guiding principles of the American Physiological Society and Institutional Animal Care and Use Committee (Department of Health and Human Services, National Institutes of Health).
# Neointimal hyperplasia in rats was induced by a technique described earlier by Clowes et al. (A. W. Clowes and M. M. Clowes, supra). Briefly, the left and right common carotid arteries (CCA) were isolated through cervical incision. After isolation of the arteries, the left CCA at the thoracic entry point was temporarily clamped with a bulldog clip. The right CCA served as a control artery and was not surgically manipulated. The left CCA was catheterized through a proximal incision at the junction of the internal and external carotid arteries with a 2F Fogarty embolectomy catheter (Baxter Healthcare Corporation, Irvine, Calif.). The catheter was advanced to the distal CCA, inflated with 0.3 ml of ambient air for 30 sec each time, and retracted to the internal carotid-external carotid junction three times, with one rotation after each passage to ensure uniform injury of the arterial wall. The Fogarty catheter was then withdrawn and exchanged for a porous balloon electroporation (PBE) catheter.
# The PBE catheter (manufactured by Danforth Biomedical, Santa Clara, Calif. as per design provided by Genetronics, Inc., San Diego, Calif.) is comprised of a 2F, triple-lumen shaft with a porous 1.5 cm long PET balloon at the distal end. Catheter lumens are used for passage of a 0.014″ guide wire for balloon inflation and deflation and as a conduit for the lead to the central electrode inside the balloon. The balloon has an inflated diameter of 1.4 mm, with four rows of 7 holes each (nominal hole size: 15-25 μm). The balloon serves as a reservoir for the heparin-containing composition. The central electrode inside the balloon is a coiled silver wire wrapped tightly and densely around the catheter shaft, over a length of approximately 10 mm. This balloon electrode acts as the cathode and the inserted guidewire as the anode. The distance between the distal end of the balloon electrode and the proximal end of the bare zone of the conductive guidewire was 4 mm (FIG. 9).
# Following balloon catheter injury of the left CCA, rats were divided into three groups. Groupl received local intracarotid delivery of heparin (Elkins-Sinn, Cherry Hill, N.J.), but no electrical pulsing (positive untreated test: H+E−; H stands for heparin and E for electrical pulsing; + or − designate […] of H or E, respectively). Group 2 received a sequence of four electroporative pulses in the presence of heparin (positive treated test: H+E+). The uninjured right CCA of all animals comprised Group 3 which received neither drug nor electrical pulses and served as negative untreated control (H−E−).
# Immediately following balloon injury of the vessel, a PBE catheter was introduced into the injured portion of the left CCA after placement of a temporary clip at the distal end of the balloon injured segment. Heparin (200 IU in 0.1 ml) (Elkins-Sinn) was delivered through the balloon pores into the arterial wall over a period of approx. 20 seconds. […]
# porcine artery = conditions: cited from earlier work
# porcine carotid artery = conditions: pig, in vivo; cited from earlier work
# [2] = Group 2 H+E+ Inj+, with electroporation
substance,measurement,setting,value
heparin,Active lumen area,"[1]; Group 1 H+E− Inj+, no pulsing",0.295 sq. mm
same,Intimal wall thickness,"[1]; Group 1 H+E− Inj+, no pulsing",541 μm
same,Mean intimal area,"[1]; Group 1 H+E− Inj+, no pulsing",0.778 sq. mm
same,Medial area,"[1]; Group 1 H+E− Inj+, no pulsing",0.254 sq. mm
same,Intima/media thickness ratio,"[1]; Group 1 H+E− Inj+: heparin 200 IU local, no electrical pulsing",2.96
same,Active lumen area,[1]; [2],0.902 sq. mm
same,Intimal wall thickness,[1]; [2],26.10 μm
same,Mean intimal area,[1]; [2],0.067 sq. mm
same,Medial area,[1]; [2],0.338 sq. mm
same,Intima/media thickness ratio,[1]; Group 2 H+E+ Inj+: heparin 200 IU local plus 4 pulses 100 V 20 ms,0.25
same,"Slope of linear regression, active lumen area versus IEL area",[1]; H+E+ group,0.57
same,Neointima formation (in words),"[1]; H+E+: heparinized, electroporated balloon injured arteries, versus H+E−",significant reduction in the volume of neointima; also recorded: vastly reduced neointimal thickness; also recorded: strong reduction in the formation of neointimal volume
same,"Slope of linear regression, active lumen area versus IEL area",[1]; H+E− group,0.17
same,Neointima formation (in words),"[1]; H+E−: heparinized, non-electroporated balloon injured arteries",marked proliferation of neointima; also recorded: pronounced neointima formation
same,Pre-sacrificial electrocardiogram (Lead II),[1]; all groups,did not reveal any rhythm abnormality
same,Period of inhibition of neointimal growth and favorable remodeling,[1]; electroporation-enhanced delivery of heparin,at least 28 days
same,Tolerability of surgery and arterial electroporation,"[1]; rats, behavior and weight",tolerated the surgery and arterial electroporation well
same,Fraction of drug washed out,porcine artery; approximately 1 hour after iontophoretic delivery,96%
same,"Concentration remaining in the vessel, IO versus passive delivery","porcine artery; heparin 1000 U to 20,000 U/ml",greater concentrations remaining in the vessel
same,Safety of iontophoretic delivery,"porcine artery; heparin 1000 U/ml, coronary angiography, blood pressure, cardiac rhythm",safe and well tolerated
same,Platelet deposition,"porcine artery; pig balloon injury model, following IO delivery",reduced
hirudin,Fraction of drug washed out,porcine carotid artery,80%
same,Level in the artery,porcine carotid artery,the same as for passive delivery
